# Data reported in patent US10544090B2, “Anthraquinone analogs and methods of making and using thereof” (Georgia State University Research Foundation, Inc., priority 2012, dated 2020).
# Like-named read-outs stand apart in the source and are kept apart here.
# What was measured:
# [1] = system: HeLa; assay: MTT cytotoxicity assay, HeLa (Table 2); conditions: for IC50 / IC50 (μM) against HeLa: Table 2; for cytotoxicity against HeLa cells compared to rhein: in words
# Method: (§1) The in vitro cytotoxicity studies of the synthesized compounds were performed in three different cell lines (HeLa, Hek, and KB). The activities of the herein described analogues were compared to that of rhein itself and doxorubicin. Due to the poor solubility of the compounds, all of the solutions used for biological testing were prepared using DMSO as solvent.
# [2] = system: Hek; assay: MTT cytotoxicity assay, Hek (Table 2); type: cell-based; conditions: for IC50: read-out: IC50 (μM) against Hek
# Method: as §1
# [3] = system: KB; assay: MTT cytotoxicity assay, KB (Table 2); type: cell-based; conditions: 48 h incubation; for IC50: read-out: IC50 (μM) against KB
# Method: as §1
# [4] = system: HeLa; assay: MTT cytotoxicity evaluation of series 1 and 2 rhein analogues, HeLa (Tables 3, 4); type: cell-based; conditions: for potency in HeLa cells compared with rhein: in words
# [5] = system: MOLT4; assay: MTT cytotoxicity evaluation of series 1 and 2 rhein analogues, MOLT4 (Tables 3, 4); conditions: for cytotoxicity against MOLT4 compared with rhein: in words
# [6] = system: human NBMM cells; assay: WST cytotoxic assay on normal bone marrow mononuclear cells; type: cell-based; conditions: concentration of 1-2 μM
# Method: FIGS. 2a-2i are graphs showing the cytotoxicity of various Rhein analogues. Acute lymphoblastic leukemia (ALL) cell lines EU-1 (p53 normal) and EU-8 (p53 null) as well as normal human BM stroma cells were incubated with different concentrations of Rhein analogues as indicated for 24 h. Viability of cells was detected by Water soluble Tetrazolium (WST) dye assay. Data represent the mean percentage ±SD of the surviving cells (as compared to untreated controls) from three independent experiments.
# The cytotoxic and inhibitory effects of the compounds described herein on normal human BM cells in vitro, as compared with doxorubicin was evaluated.
# [7] = system: mice; assay: Toxicity in mice; type: in vivo; conditions: single injection at a dose of 15/kg
# Method: FIG. 6 is a table showing the estimated treatment doses and maximum tolerated dose (MTD) of MG1 in mice as compared with doxorubicin.
# Toxicity was also evaluated in mice. […] Subsequently, a single injection of MG1 at a dose of 400 mg/kg was administered via injection.
# […]. Toxicity was also evaluated in mice. […] Subsequently, a single injection of MG1 at a dose of 400 mg/kg was administered via injection.
# [8] = system: DNA damage; assay: Comet images, mechanism of cancer cell death; type: cell-based
# [9] = Homo sapiens, HeLa, 48 h, read-out: IC50 (μM) against HeLa, MTT, 48 h incubation
# [10] = Homo sapiens, HEK293, 48 h incubation
# [11] = Homo sapiens, HeLa, MTT, Tables 3 and 4, read-out: IC50 (μM) against HeLa
# [12] = Homo sapiens, MOLT-4, read-out: IC50 (μM) against MOLT4
# [13] = read-out: IC50 (μM) against HeLa, MTT, 48 h incubation
# [14] = MTT, Tables 3 and 4, read-out: IC50 (μM) against HeLa
# [15] = read-out: IC50 (μM) against MOLT4, MTT, Tables 3 and 4
smiles,measurement,setting,value
"O=C(CCl)Nc1cc(O)c2c(c1)C(=O)c1cccc(O)c1C2=O [Compound 5, 1,8-Dihydroxy-3-(2′-chloro-acetamido)-anthraquinone]",IC50,[1]; [9],4 µM
same,IC50 (μM) against HeLa,"[1]; MTT, 48 h incubation",low micro molar
same,cytotoxicity against HeLa cells compared to rhein,[1],significant improvement
same,IC50 (μM) against Hek,[2]; 48 h incubation,low micro molar
same,IC50,[2]; [10],4 µM
same,IC50 (μM) against KB,[3],low micro molar
same,IC50,"[3]; Homo sapiens, KB, 48 h",4.5 µM
"O=C(CBr)Nc1cc(O)c2c(c1)C(=O)c1cccc(O)c1C2=O [Compound 6, 1,8-Dihydroxy-3-(2′-bromo-acetamido)-anthraquinone]",IC50,[1]; [9],40 µM
same,times more potent than rhein against HeLa,[1]; ratio of IC50 values,2.5 fold
same,IC50,[2]; [10],8 µM
same,IC50,"[3]; Homo sapiens, KB, 48 h",15 µM
"O=C(CI)Nc1cc(O)c2c(c1)C(=O)c1cccc(O)c1C2=O [Compound 7, 1,8-Dihydroxy-3-(2′-iodo-acetamido)-anthraquinone]",IC50,[1]; [9],10 µM
same,IC50,[2]; [10],2 µM
same,IC50,"[3]; Homo sapiens, KB, 48 h",9 µM
same,IC50,[4]; [11],17 µM
same,IC50,[5]; [12],10 µM
"O=C(CN1CCOCC1)Nc1cc(O)c2c(c1)C(=O)c1cccc(O)c1C2=O [Compound 9c, 1,8-dihydroxy-3-(2′-morpholino-acetamido)-anthraquinone]",IC50,[4]; [11],13 µM
same,IC50,[5]; [12],25 µM
"O=C(CN1CCCCC1)Nc1cc(O)c2c(c1)C(=O)c1cccc(O)c1C2=O [Compound 9d, 1,8-Dihydroxy-3-(2′-piperidinyl-acetamido)-anthraquinone]",IC50,[4]; [11],33 µM
same,IC50,[5]; [12],4.1 µM
"COc1cccc2c1C(=O)c1c(OC)cc(NC(=O)CBr)cc1C2=O [Compound 13, 1,8-dimethoxy-3-(2′-bromo-acetamido)-anthraquinone]",IC50,[1]; [9],8 µM
same,IC50,[2]; [10],2.3 µM
same,IC50,"[3]; Homo sapiens, KB, 48 h",38 µM
"COc1cccc2c1C(=O)c1c(OC)cc(NC(=O)CI)cc1C2=O [Compound 14, 1,8-dimethoxy-3-(2′-iodo-acetamido)-anthraquinone]",IC50,[1]; [9],2.5 µM
same,IC50 (μM) against HeLa,"[1]; MTT, 48 h incubation",low micro molar
same,cytotoxicity against HeLa cells compared to rhein,[1],significant improvement
same,IC50 (μM) against Hek,[2]; 48 h incubation,low micro molar
same,IC50,[2]; [10],1.4 µM
same,IC50 (μM) against KB,[3],low micro molar
same,IC50,"[3]; Homo sapiens, KB, 48 h",10 µM
"O=C(CCl)NCCCCNC(=O)c1cc(O)c2c(c1)C(=O)c1cccc(O)c1C2=O [Compound 17, 1,8-Dihydroxy-3-(9′-chloro-aceta-2′,7′diamido)-anthraquinone]",IC50,[1]; [13],16 µM
same,IC50,[2]; 48 h incubation,8 µM
same,IC50,[3],19 µM
"O=C(CBr)NCCCCNC(=O)c1cc(O)c2c(c1)C(=O)c1cccc(O)c1C2=O [Compound 18, 1,8-Dihydroxy-3-(9′-bromo-aceta-2′,7′diamido)-anthraquinone]",IC50 (μM) against HeLa,"[1]; MTT, 48 h incubation",low micro molar
same,cytotoxicity against HeLa cells compared to rhein,[1],significant improvement
same,IC50,[1]; [13],3 µM
same,IC50 (μM) against Hek,[2]; 48 h incubation,low micro molar
same,IC50,[2]; 48 h incubation,1.4 µM
same,IC50 (μM) against KB,[3],low micro molar
same,IC50,[3],4.8 µM
"O=C(CCl)NCCCOCCOCCOCCCNC(=O)c1cc(O)c2c(c1)C(=O)c1cccc(O)c1C2=O [Compound 21, 1,8-Dihydroxy-3-(18′-chloro-aceta-6′,9′,12′-trioxa-2′,16′-tridecanediamido)-anthraquinone]",IC50,[1]; [13],14 µM
same,IC50,[2]; 48 h incubation,8 µM
same,IC50,[3],21 µM
"O=C(CBr)NCCCOCCOCCOCCCNC(=O)c1cc(O)c2c(c1)C(=O)c1cccc(O)c1C2=O [Compound 22, 1,8-Dihydroxy-3-(18′-bromo-aceta-6′,9′,12′-trioxa-2′,16′-tridecanediamido)-anthraquinone]",IC50,[1]; [13],7 µM
same,IC50,[2]; 48 h incubation,2.2 µM
same,IC50,[3],9 µM
"O=C(CI)NCCCOCCOCCOCCCNC(=O)c1cc(O)c2c(c1)C(=O)c1cccc(O)c1C2=O [Compound 23, 1,8-Dihydroxy-3-(18′-iodo-aceta-6′,9′,12′-trioxa-2′,16′-tridecanediamido)-anthraquinone]",IC50,[1]; [13],5.8 µM
same,IC50,[2]; 48 h incubation,4 µM
same,IC50,[3],8 µM
"O=C1c2cccc(O)c2C(=O)c2c(O)cc(Sc3ccccc3)cc21 [Compound 24a, 1,8-Dihydroxy-3-(phenylthio)-anthraquinone]","potency increase compared with rhein, HeLa",[4],at least 30 fold
same,IC50,[4]; [11],3.4 µM
same,IC50 (μM) against HeLa,"[4]; MTT, Tables 3 and 4",single digit μM level
same,"potency increase compared with rhein, MOLT4",[5],at least 30 fold
same,IC50,[5]; [12],1.4 µM
same,IC50 (μM) against MOLT4,"[5]; MTT, Tables 3 and 4",single digit μM level
"Cc1noc(C)c1-c1cc(O)c2c(c1)C(=O)c1cccc(O)c1C2=O [Compound 26a, 1,8-Dihydroxy-3-(3′,5′-dimethyl-isoxazol-4′-yl)-anthraquinone]",IC50,[4]; [14],16 µM
same,potency in HeLa cells compared with rhein,[4],moderate improvement in potency
same,IC50,[5]; [15],14 µM
"O=C1c2cccc(O)c2C(=O)c2c(O)cc(-c3cccs3)cc21 [Compound 26b, 1,8-Dihydroxy-3-(thiophen-2′-yl)-anthraquinone]",IC50,[4]; [14],> 100 µM
same,cytotoxicity against MOLT4 compared with rhein,[5],decreased cytotoxicity
same,IC50,[5]; [15],> 100 µM
"Cc1cc(-c2cc(O)c3c(c2)C(=O)c2cccc(O)c2C3=O)ccc1N(C)C [Compound 26c, 1,8-Dihydroxy-3-(4′-dimethylamino-3′-methylphenyl)-anthraquinone]",IC50,[4]; [11],68 µM
same,potency in HeLa cells compared with rhein,[4],moderate improvement in potency
same,IC50,[5]; [12],> 100 µM
same,cytotoxicity against MOLT4 compared with rhein,[5],decreased cytotoxicity
"O=C1c2cccc(O)c2C(=O)c2c(O)cc(-c3ccc(Sc4ccccc4)nc3)cc21 [Compound 26d, 1,8-Dihydroxy-3-(6′-phenylthio-pyridin-3′-yl)-anthraquinone]",IC50,[4]; [14],> 100 µM
same,IC50,[5]; [15],35 µM
"CC(C)(C)OCc1ccc(-c2cc(O)c3c(c2)C(=O)c2cccc(O)c2C3=O)cc1 [Compound 26e, 1,8-Dihydroxy-3-(4′-t-butoxymethyl-phenyl)-anthraquinone]",IC50,[4]; [11],> 100 µM
same,IC50,[5]; [12],22 µM
"COc1ccc(-c2cc(O)c3c(c2)C(=O)c2cccc(O)c2C3=O)cc1 [Compound 26f, 1,8-Dihydroxy-3-(4′-methoxyphenyl)-anthraquinone]",IC50,[4]; [11],> 100 µM
same,IC50,"[4]; Homo sapiens, HeLa, less than 50% cells killed at highest concentration, R^2 < 0.8, read-out: IC50 (μM) against HeLa, value inside parenthesis calculated by Prism 4 using sigmoidal curve fitting",20 µM
same,IC50,[5]; [12],29 µM
"O=C1c2cccc(O)c2C(=O)c2c(O)cc(-c3ccc(O)cc3)cc21 [Compound 26g, 1,8-Dihydroxy-3-(4′-hydroxyphenyl)-anthraquinone]",IC50,[4]; [11],9.9 µM
same,potency in HeLa cells compared with rhein,[4],moderate improvement in potency
same,IC50,[5]; [12],21 µM
"COc1cccc2c1C(=O)c1c(O)c3c(c(O)c1C2=O)C[C@@](O)(C(=O)CO)C[C@@H]3O[C@H]1C[C@H](N)[C@H](O)[C@H](C)O1 [Doxorubicin, reference compound]",IC50,[1]; [9],1.4 µM
same,IC50,[1]; [13],1.5 µM
same,IC50,[2]; [10],0.15 µM
same,IC50,"[3]; Homo sapiens, KB",0.4 µM
same,IC50,[4]; [11],0.98 µM
same,human NBMM cells survived after treatment,[6],40-50%
same,death of mice,[7],death of all mice at day 7 due to cardiac toxicity
same,mechanism of cancer cell death (DNA damage),[8],induces cancer cell death through DNA damage
same,IC50,[5]; [12],0.04 µM
"O=C(O)c1cc(O)c2c(c1)C(=O)c1cccc(O)c1C2=O [Rhein, reference compound]",IC50,[1]; [9],100 µM
same,IC50,[1]; [13],> 100 µM
same,IC50,[2]; [10],> 100 µM
same,IC50,[3],> 100 µM
same,IC50,"[3]; Homo sapiens, KB, 48 h",≥ 100 µM
same,IC50,[4]; [11],> 100 µM
same,IC50,[5]; [12],37 µM
